Results reported in ChEMBL document CHEMBL1201862, “PubChem BioAssay data set” (2004).
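Cells were grown in 96-well plates and exposed to each compound for 48 hours at five concentrations; endpoints were interpolated linearly between bracketing concentrations, or set to the highest concentration if not reached. GI50 marks 50% less growth.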 Active and inactive are the calls of the source. Rule as the data show it: active = GI50 up to about 1.1 µM and inactive = higher.

Key:
Test in all cases: growth of human tumour cells (NCI), 48 h
[1] = system: SN12C
[2] = system: SF-295
[3] = system: SW-620
[4] = system: HOP-62
[5] = system: NCI/ADR-RES
[6] = system: SK-OV-3
[7] = system: OVCAR-5
[8] = system: SK-MEL-28
[9] = system: DU-145
[10] = system: NCI-H226
[11] = system: A498
[12] = system: NCI-H460
[13] = system: UO-31
[14] = system: UACC-257
[15] = system: RPMI-8226
[16] = system: KM12
[17] = system: 786-0
[18] = system: MDA-MB-435
[19] = system: SR
[20] = system: M14

| Compound | GI50 [1] | GI50 [2] | GI50 [3] | GI50 [4] | GI50 [5] | GI50 [6] | GI50 [7] | GI50 [8] | GI50 [9] | GI50 [10] | GI50 [11] | GI50 [12] | GI50 [13] | GI50 [14] | GI50 [15] | GI50 [16] | GI50 [17] | GI50 [18] | GI50 [19] | GI50 [20] |
| --- | --- | --- | --- | --- | --- | --- | --- | --- | --- | --- | --- | --- | --- | --- | --- | --- | --- | --- | --- | --- |
| O=C(c1ccc2ccccc2c1)N(Cc1cccnc1)C(=S)N(Cc1cccnc1)C(=O)c1ccc2ccccc2c1 | 64 µM (inactive) | 34.7 µM (inactive) | 49.5 µM (inactive) | 23.2 µM (inactive) | 30 µM (inactive) | 46.3 µM (inactive) | 55 µM (inactive) | 36.9 µM (inactive) | 27 µM (inactive) | 61.2 µM (inactive) | 32.9 µM (inactive) | 30.6 µM (inactive) | 28.6 µM (inactive) | 19.5 µM (inactive) | 32.9 µM (inactive) | 22 µM (inactive) | 25.2 µM (inactive) | 34 µM (inactive) | 45.2 µM (inactive) | 20.8 µM (inactive) |
| Cc1ccccc1N1C(N)=C(C#N)C(C#N)(C#N)C1c1ccccc1 (stereo unspecified) | 23.3 µM (inactive) | 24.7 µM (inactive) | 16.3 µM (inactive) | 19.4 µM (inactive) | 20.7 µM (inactive) | 31.3 µM (inactive) | 21.9 µM (inactive) | 17.6 µM (inactive) | 16.7 µM (inactive) | 20.7 µM (inactive) | 16.6 µM (inactive) |  | 16.8 µM (inactive) | 17 µM (inactive) | 19.2 µM (inactive) | 16.8 µM (inactive) | 17.3 µM (inactive) | 17.7 µM (inactive) | 23.9 µM (inactive) | 23.4 µM (inactive) |
| CN(C)CCn1c(CO)nc2c1c(=O)n(C)c(=O)n2C | > 100 µM (inactive) | > 100 µM (inactive) | > 100 µM (inactive) | > 100 µM (inactive) | > 100 µM (inactive) | > 100 µM (inactive) | > 100 µM (inactive) | > 100 µM (inactive) | > 100 µM (inactive) | > 100 µM (inactive) | > 100 µM (inactive) | > 100 µM (inactive) | > 100 µM (inactive) | > 100 µM (inactive) | > 100 µM (inactive) | > 100 µM (inactive) | > 100 µM (inactive) | > 100 µM (inactive) | > 100 µM (inactive) | > 100 µM (inactive) |
| CNC(=O)CNC(=O)C(Cc1ccc(NC(=O)CCCCC(C)=O)cc1)NC(=O)C(CCC(=O)OCc1ccccc1)NC(=O)OC(C)(C)C (stereo unspecified) | > 100 µM (inactive) | > 100 µM (inactive) | > 100 µM (inactive) | > 100 µM (inactive) | > 100 µM (inactive) | > 100 µM (inactive) | > 100 µM (inactive) | > 100 µM (inactive) | > 100 µM (inactive) | > 100 µM (inactive) | 48.3 µM (inactive) | > 100 µM (inactive) | > 100 µM (inactive) |  | > 100 µM (inactive) | > 100 µM (inactive) | > 100 µM (inactive) | > 100 µM (inactive) | > 100 µM (inactive) | > 100 µM (inactive) |
| Cc1ccc(C2=Nc3cc(C)c(Cl)cc3S(=O)(=O)NN2)cc1 | > 100 µM (inactive) | > 100 µM (inactive) | > 100 µM (inactive) | > 100 µM (inactive) | > 100 µM (inactive) | > 100 µM (inactive) |  | > 100 µM (inactive) | > 100 µM (inactive) | > 100 µM (inactive) | > 100 µM (inactive) | > 100 µM (inactive) | > 100 µM (inactive) | > 100 µM (inactive) | > 100 µM (inactive) | > 100 µM (inactive) | 58.1 µM (inactive) | > 100 µM (inactive) | 20 µM (inactive) | > 100 µM (inactive) |
| O=C(O)CCC(=O)c1ccc2c(c1)C(C(=O)O)CC2 (stereo unspecified) | > 100 µM (inactive) | > 100 µM (inactive) | > 100 µM (inactive) | > 100 µM (inactive) | > 100 µM (inactive) | > 100 µM (inactive) | > 100 µM (inactive) | > 100 µM (inactive) | > 100 µM (inactive) | > 100 µM (inactive) | > 100 µM (inactive) | > 100 µM (inactive) | > 100 µM (inactive) | > 100 µM (inactive) | > 100 µM (inactive) | > 100 µM (inactive) | > 100 µM (inactive) | > 100 µM (inactive) | > 100 µM (inactive) | > 100 µM (inactive) |
| CCOC(=O)c1cc(Br)c(-c2onc(C)c2Br)n1C | 23.1 µM (inactive) | 23.9 µM (inactive) | 49.7 µM (inactive) | 35.6 µM (inactive) | 37.2 µM (inactive) | 21.9 µM (inactive) | 19.4 µM (inactive) | > 100 µM (inactive) | 93.5 µM (inactive) | 55.2 µM (inactive) | 45.2 µM (inactive) | 40 µM (inactive) | 45.9 µM (inactive) | 44.7 µM (inactive) | 55 µM (inactive) | 21.8 µM (inactive) | 25.9 µM (inactive) | 34.8 µM (inactive) | 20.5 µM (inactive) | 40.6 µM (inactive) |
| O=C(/C=C/c1ccc(O)cc1)NCCc1ccc(O)cc1 [N-P-COUMAROYL TYRAMINE] | 5 µM (inactive) | 8.13 µM (inactive) | > 12.5 µM (inactive) | > 12.5 µM (inactive) | 3.62 µM (inactive) |  | > 12.5 µM (inactive) | > 12.5 µM (inactive) | 12 µM (inactive) | > 12.5 µM (inactive) | > 12.5 µM (inactive) | 11.2 µM (inactive) | 11.1 µM (inactive) | > 12.5 µM (inactive) | 6.95 µM (inactive) | > 12.5 µM (inactive) | > 12.5 µM (inactive) | > 12.5 µM (inactive) | 4.02 µM (inactive) | > 12.5 µM (inactive) |
| O=C(NNC(=S)Nc1ccc(Br)cc1)c1cc(-c2ccccc2)nc2ccccc12 | 19.1 µM (inactive) | 19.2 µM (inactive) | 21.2 µM (inactive) | 20 µM (inactive) | 18.6 µM (inactive) | 25.2 µM (inactive) | 24.9 µM (inactive) | 21.1 µM (inactive) | 19.9 µM (inactive) | 24.3 µM (inactive) | 13.8 µM (inactive) | 20.8 µM (inactive) | 17.1 µM (inactive) | 23.2 µM (inactive) | 14.3 µM (inactive) | 29.9 µM (inactive) | 19 µM (inactive) | 17.1 µM (inactive) | 20.4 µM (inactive) | 17 µM (inactive) |
| O=C(O)c1cccc(/[As]=[As]\c2cccc(C(=O)O)c2)c1 (stereo unspecified) | 38.2 µM (inactive) | > 100 µM (inactive) | 32.7 µM (inactive) | 35.2 µM (inactive) | 75.7 µM (inactive) |  | 24.5 µM (inactive) | > 100 µM (inactive) | 86.5 µM (inactive) | 84.9 µM (inactive) | 28 µM (inactive) | 36 µM (inactive) | 38.2 µM (inactive) | 40.9 µM (inactive) | 23 µM (inactive) | > 100 µM (inactive) | 24.8 µM (inactive) | 52.1 µM (inactive) | 28.7 µM (inactive) | 45.9 µM (inactive) |
| CC(=O)OCC(=O)O[C@@H]1[C@H]2[C@@H](OC(=O)c3ccccc3)[C@@H](C)C[C@]2(O)[C@H](OC(C)=O)[C@@]2(C)C[C@]1(OC(C)=O)C[C@H]1C(=O)C(C)(C)[C@@H](OC(C)=O)[C@@H]12 | > 25 µM (inactive) | 6.01 µM (inactive) | 21.2 µM (inactive) | 5.78 µM (inactive) | > 25 µM (inactive) | > 25 µM (inactive) | 10 µM (inactive) | > 25 µM (inactive) | > 25 µM (inactive) | > 25 µM (inactive) | 13.4 µM (inactive) | 0.991 µM (active) | 0.912 µM (active) | > 25 µM (inactive) | 17.9 µM (inactive) | > 25 µM (inactive) | > 20 µM (inactive) | 10.8 µM (inactive) | > 25 µM (inactive) | > 12.1 µM (inactive) |
| COC(=O)c1ccccc1NC(=O)/C(=N\NC(C)(C)C)C(C#N)c1nc(-c2ccc([N+](=O)[O-])cc2)cs1 (stereo unspecified) | > 100 µM (inactive) | > 100 µM (inactive) | > 100 µM (inactive) |  | > 100 µM (inactive) | > 100 µM (inactive) | > 100 µM (inactive) | > 100 µM (inactive) | > 100 µM (inactive) | > 100 µM (inactive) | > 100 µM (inactive) | > 100 µM (inactive) | > 100 µM (inactive) | > 100 µM (inactive) | > 100 µM (inactive) | > 100 µM (inactive) | > 100 µM (inactive) | > 100 µM (inactive) | > 100 µM (inactive) | > 100 µM (inactive) |
| CCC(C)C1=C(OC(C)=O)[N+]2([O-])Oc3ccc(-c4c(OC(C)=O)c(OC(C)=O)c(-c5ccc(OC(C)=O)cc5)c(OC(C)=O)c4OC(C)=O)cc3OC2(C(C)CC)C(=O)N1OC(C)=O (stereo unspecified) | 34.3 µM (inactive) | 8.69 µM (inactive) | 20.5 µM (inactive) |  | > 50 µM (inactive) | 43 µM (inactive) | 24 µM (inactive) | 19.5 µM (inactive) | 19.3 µM (inactive) | 21.1 µM (inactive) | > 50 µM (inactive) | 18.9 µM (inactive) | 30.6 µM (inactive) | 30.5 µM (inactive) | 10.3 µM (inactive) | 19.3 µM (inactive) | 10.5 µM (inactive) | 17.5 µM (inactive) | 13.7 µM (inactive) | 20.1 µM (inactive) |
| C[C@@H]1CC(=O)[C@@]2(C)[C@](O)(CCC3O[C@]32C)[C@@]12CC(c1ccoc1)OC2=O (stereo partly specified) |  | > 100 µM (inactive) | 37.4 µM (inactive) |  | 46.2 µM (inactive) | > 100 µM (inactive) | > 100 µM (inactive) | > 100 µM (inactive) | > 100 µM (inactive) | > 100 µM (inactive) | 94.4 µM (inactive) | 66.7 µM (inactive) | > 100 µM (inactive) | > 100 µM (inactive) | 33.3 µM (inactive) | > 100 µM (inactive) | 75.7 µM (inactive) | 42 µM (inactive) | 30.3 µM (inactive) | 72.4 µM (inactive) |
